Experiment [1] concerns Mus musculus. Briefly: Nephroprotective activity against cisplatin-induced acute kidney injury in male C57BL/6 mouse assessed as plasma SCr concentration at 10 mg/kg/day, ip. The experiment is classed as functional.
The test system of experiment [2] is Mus musculus. Put plainly: Nephroprotective activity against cisplatin-induced acute kidney injury in male C57BL/6 mouse assessed as plasma BUN concentration at 10 mg/kg/day, ip. The experiment is classed as functional.
Experiment [3] concerns HK-2. Briefly: Antiproliferative activity against human HK-2 cells assessed as decrease in cell viability at 50 uM measured in presence of 10 uM cisplatin after 24 hrs by CCK-8 assay. The experiment is classed as functional. (In general: Tetrazolium dyes change colour on reduction, which living cells bring about.)
In experiment [4] the test system is Mus musculus. Briefly: Nephroprotective activity against cisplatin-induced acute kidney injury in male C57BL/6 mouse assessed as serum EPO level at 10 mg/kg/day, ip. The experiment is classed as functional.
Experiment [5] relates to Mus musculus. Put plainly: Nephroprotective activity against cisplatin-induced acute kidney injury in male C57BL/6 mouse assessed as decrease in expression of NGAL at 10 mg/kg/day, ip. The experiment is classed as functional, organism-based.
In experiment [6] the test system is A549. Briefly: Induction of apoptosis in human A549 cells assessed as apoptotic cell population at 50 uM in presence of 100 uM cisplatin measured by Annexin V-FITC/propidium iodide staining based flow cytometry assay. The experiment is classed as functional. A general note: In flow cytometry, cells or beads pass a laser one at a time.
Experiment [7] has as its system MCF7. Put plainly: Induction of apoptosis in human MCF7 cells assessed as apoptotic cell population at 50 uM in presence of 100 uM cisplatin measured by Annexin V-FITC/propidium iodide staining based flow cytometry assay. The experiment is classed as functional.
Experiment [8] concerns MCF7. Put plainly: Induction of apoptosis in human MCF7 cells assessed as apoptotic cell population at 50 uM measured by Annexin V-FITC/propidium iodide staining based flow cytometry assay. The experiment is classed as functional.
Experiment [9] concerns A549. Put plainly: Induction of apoptosis in human A549 cells assessed as apoptotic cell population at 50 uM measured by Annexin V-FITC/propidium iodide staining based flow cytometry assay. The experiment is classed as functional.
Another experiment addresses Egl nine homolog 1 (Homo sapiens, UniProt Q9GZT9). Put plainly: Inhibition of PHD2 (unknown origin) measured by fluorescence polarization assay.
For experiment [10], the system named is A549. Briefly: Antiproliferative activity against human A549 cells assessed as decrease in cell viability at 50 uM relative to control. The experiment is classed as functional, cell-based.
The subject of experiment [11] is MCF7. Put plainly: Antiproliferative activity against human MCF7 cells assessed as decrease in cell viability at 50 uM in presence of 100 uM cisplatin relative to control. The experiment is classed as functional.
The target of the next experiment is Histone deacetylase 2 (Homo sapiens, UniProt Q92769).
Sequence of Histone deacetylase 2 (Q92769 whole entry): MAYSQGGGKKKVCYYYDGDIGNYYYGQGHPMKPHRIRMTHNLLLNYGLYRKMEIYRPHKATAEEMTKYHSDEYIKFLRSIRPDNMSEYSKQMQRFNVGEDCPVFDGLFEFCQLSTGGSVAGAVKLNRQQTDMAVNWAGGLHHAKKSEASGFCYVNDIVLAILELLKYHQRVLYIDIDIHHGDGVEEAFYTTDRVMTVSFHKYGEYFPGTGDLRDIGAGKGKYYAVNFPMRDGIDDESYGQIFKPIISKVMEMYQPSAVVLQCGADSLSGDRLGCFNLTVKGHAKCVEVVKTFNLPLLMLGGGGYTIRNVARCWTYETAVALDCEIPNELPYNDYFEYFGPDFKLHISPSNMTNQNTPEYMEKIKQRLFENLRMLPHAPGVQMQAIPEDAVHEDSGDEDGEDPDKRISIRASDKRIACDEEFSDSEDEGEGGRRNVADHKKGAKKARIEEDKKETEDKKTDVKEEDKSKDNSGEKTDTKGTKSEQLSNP
Experiment [12] has as its target T1, Protein deacetylase HDAC6 (Homo sapiens, UniProt Q9UBN7).
T1 sequence (Q9UBN7 whole entry): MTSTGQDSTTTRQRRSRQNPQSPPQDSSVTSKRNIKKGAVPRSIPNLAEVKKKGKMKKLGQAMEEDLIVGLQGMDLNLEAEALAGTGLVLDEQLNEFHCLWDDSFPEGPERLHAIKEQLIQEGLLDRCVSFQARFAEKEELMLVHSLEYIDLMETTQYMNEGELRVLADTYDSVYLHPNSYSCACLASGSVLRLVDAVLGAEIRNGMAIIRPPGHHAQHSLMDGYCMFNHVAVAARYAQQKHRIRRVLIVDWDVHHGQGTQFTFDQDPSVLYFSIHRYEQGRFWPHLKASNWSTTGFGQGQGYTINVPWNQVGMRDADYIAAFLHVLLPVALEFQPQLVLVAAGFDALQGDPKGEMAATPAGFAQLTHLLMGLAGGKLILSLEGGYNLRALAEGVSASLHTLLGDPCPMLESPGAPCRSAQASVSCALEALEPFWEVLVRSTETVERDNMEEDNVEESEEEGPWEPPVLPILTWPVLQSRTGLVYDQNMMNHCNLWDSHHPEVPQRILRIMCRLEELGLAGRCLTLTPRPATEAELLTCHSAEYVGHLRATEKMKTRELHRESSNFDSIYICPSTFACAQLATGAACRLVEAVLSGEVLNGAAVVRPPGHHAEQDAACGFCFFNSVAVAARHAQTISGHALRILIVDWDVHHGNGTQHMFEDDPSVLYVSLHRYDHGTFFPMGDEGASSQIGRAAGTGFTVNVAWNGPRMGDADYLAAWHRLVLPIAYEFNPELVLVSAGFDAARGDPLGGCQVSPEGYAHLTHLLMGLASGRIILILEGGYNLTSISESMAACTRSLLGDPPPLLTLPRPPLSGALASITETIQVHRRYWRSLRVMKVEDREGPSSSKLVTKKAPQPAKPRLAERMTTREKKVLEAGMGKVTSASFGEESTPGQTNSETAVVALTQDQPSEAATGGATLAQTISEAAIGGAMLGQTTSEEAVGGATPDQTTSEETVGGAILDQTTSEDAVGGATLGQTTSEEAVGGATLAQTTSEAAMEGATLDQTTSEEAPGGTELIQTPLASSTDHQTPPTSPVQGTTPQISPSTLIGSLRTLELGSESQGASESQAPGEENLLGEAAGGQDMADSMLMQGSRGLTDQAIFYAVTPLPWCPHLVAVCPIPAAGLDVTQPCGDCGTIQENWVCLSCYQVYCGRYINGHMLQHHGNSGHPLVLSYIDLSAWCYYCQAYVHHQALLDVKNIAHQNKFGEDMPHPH
Briefly: Inhibition of HDAC6 (unknown origin) using trypsin and Ac-peptide as substrates.

The test system of experiment [13] is MCF7. Put plainly: Antiproliferative activity against human MCF7 cells assessed as decrease in cell viability at 50 uM relative to control. The experiment is classed as functional, cell-based.
For the next experiment, the target named is Histone deacetylase 4 (Homo sapiens, UniProt P56524). Put plainly: Inhibition of HDAC4 (unknown origin) using trypsin and Ac-peptide as substrates.
Sequence of Histone deacetylase 4 (P56524 whole entry): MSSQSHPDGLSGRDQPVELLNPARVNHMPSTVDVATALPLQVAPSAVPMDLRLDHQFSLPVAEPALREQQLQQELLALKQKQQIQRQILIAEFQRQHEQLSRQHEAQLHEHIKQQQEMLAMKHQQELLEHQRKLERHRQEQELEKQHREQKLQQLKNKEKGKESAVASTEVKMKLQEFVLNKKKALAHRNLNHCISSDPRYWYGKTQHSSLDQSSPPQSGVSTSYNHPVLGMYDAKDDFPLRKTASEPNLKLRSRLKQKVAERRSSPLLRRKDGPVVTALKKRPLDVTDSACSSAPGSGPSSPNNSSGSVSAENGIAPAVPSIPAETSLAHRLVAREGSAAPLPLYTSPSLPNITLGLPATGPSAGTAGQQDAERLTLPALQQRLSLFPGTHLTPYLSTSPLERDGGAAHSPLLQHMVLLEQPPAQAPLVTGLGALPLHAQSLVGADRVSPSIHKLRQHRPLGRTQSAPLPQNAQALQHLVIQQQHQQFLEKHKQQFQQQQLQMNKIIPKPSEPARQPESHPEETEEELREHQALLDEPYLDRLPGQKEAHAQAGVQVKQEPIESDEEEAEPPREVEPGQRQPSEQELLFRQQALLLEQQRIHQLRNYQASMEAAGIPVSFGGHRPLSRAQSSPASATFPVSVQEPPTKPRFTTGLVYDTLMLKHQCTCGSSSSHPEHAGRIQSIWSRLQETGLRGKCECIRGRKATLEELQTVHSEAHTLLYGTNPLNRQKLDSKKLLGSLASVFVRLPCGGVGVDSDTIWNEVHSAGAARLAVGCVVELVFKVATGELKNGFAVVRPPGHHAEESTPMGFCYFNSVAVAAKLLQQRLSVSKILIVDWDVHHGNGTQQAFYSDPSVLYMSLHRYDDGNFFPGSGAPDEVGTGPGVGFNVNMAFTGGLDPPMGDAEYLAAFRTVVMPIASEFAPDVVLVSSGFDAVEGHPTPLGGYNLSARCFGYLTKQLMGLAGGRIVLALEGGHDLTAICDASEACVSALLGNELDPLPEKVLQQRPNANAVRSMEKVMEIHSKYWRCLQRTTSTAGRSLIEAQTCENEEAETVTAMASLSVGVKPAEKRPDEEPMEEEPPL
Another experiment deals with Histone deacetylase 1 (Homo sapiens, UniProt Q13547). Briefly: Inhibition of HDAC1 (unknown origin) using trypsin and Ac-peptide as substrates.
Sequence of Histone deacetylase 1 (Q13547 whole entry): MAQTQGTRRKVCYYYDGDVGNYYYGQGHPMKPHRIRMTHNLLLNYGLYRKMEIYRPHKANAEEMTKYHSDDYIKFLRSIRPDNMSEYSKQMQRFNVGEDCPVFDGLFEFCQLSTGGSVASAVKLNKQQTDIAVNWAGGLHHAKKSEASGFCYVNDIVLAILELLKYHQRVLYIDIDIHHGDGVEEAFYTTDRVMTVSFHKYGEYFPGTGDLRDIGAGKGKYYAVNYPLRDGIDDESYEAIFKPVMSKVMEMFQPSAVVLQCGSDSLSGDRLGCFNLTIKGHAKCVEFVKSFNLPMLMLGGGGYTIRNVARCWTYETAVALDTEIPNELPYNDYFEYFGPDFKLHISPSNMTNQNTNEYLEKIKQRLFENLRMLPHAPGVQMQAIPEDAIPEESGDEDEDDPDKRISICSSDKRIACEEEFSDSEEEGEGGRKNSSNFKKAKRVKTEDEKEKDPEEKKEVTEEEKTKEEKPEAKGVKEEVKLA
Experiment [14] deals with A549. Briefly: Antiproliferative activity against human A549 cells assessed as decrease in cell viability at 50 uM in presence of 40 uM cisplatin relative to control. The experiment is classed as functional.
The test system of experiment [15] is Mus musculus. Briefly: Nephroprotective activity against cisplatin-induced acute kidney injury in male C57BL/6 mouse assessed as decrease tubular injury at 10 mg/kg/day, ip. The experiment is classed as functional, organism-based.
Experiment [16] relates to HK-2. Briefly: Antiproliferative activity against human HK-2 cells assessed as decrease in cell viability at 0.78 uM measured after 24 hrs by CCK-8 assay. The experiment is classed as functional.

Here are results for three compounds from ChEMBL document CHEMBL5154698, “Novel PHD2/HDACs hybrid inhibitors protect against cisplatin-induced acute kidney injury” (Eur J Med Chem, 2022).

Calls of active or inactive are those of the source. The rule behind the calls is not given here.

Sequence of Egl nine homolog 1 (Q9GZT9 whole entry): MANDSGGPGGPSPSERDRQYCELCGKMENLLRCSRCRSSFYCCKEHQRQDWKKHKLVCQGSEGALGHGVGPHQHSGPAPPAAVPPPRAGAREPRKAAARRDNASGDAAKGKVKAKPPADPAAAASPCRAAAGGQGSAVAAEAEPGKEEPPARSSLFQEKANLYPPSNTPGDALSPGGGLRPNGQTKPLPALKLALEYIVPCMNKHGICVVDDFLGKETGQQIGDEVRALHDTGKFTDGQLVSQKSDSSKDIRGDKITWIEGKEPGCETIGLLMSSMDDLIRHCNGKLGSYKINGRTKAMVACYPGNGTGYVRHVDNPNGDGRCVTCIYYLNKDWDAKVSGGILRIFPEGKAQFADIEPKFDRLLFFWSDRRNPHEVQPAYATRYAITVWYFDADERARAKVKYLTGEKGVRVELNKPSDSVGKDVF

In the case of `Cc1nc(C(=O)NCC(=O)O)c(O)c2ccc(Oc3ccccc3)cc12` [ROXADUSTAT], the Activity came to 0.0947 mmol/L in the experiment on Mus musculus [1], 13.91 mmol/L in the experiment with Mus musculus [2], 71.12% in the experiment with HK-2 [3] and 23.46 mIU/ml with Mus musculus [4].
The IC50 is the point on the concentration scale where inhibition reaches its midpoint. Lower therefore signals higher potency. Turning to `O=C(NO)c1cnc(N2CCC(NC(=O)c3cnc(-n4cccn4)nc3O)CC2)nc1`, the result with Mus musculus [5], with A549 [10], in the experiment with MCF7 [13] and in the experiment with Mus musculus [15] was Active. Besides, the Activity in the experiment on A549 [6] is 13.2%; with MCF7 [7], 26.6%; in the experiment with MCF7 [8], 19.3%; in the experiment with A549 [9], 4.9%; with Mus musculus [1], 0.0311 mmol/L; with Mus musculus [2], 10.86 mmol/L. The Activity in the experiment with MCF7 [11] was determined as 36.83%; in the experiment on HK-2 [3], 61.96%; in the experiment with Mus musculus [4], 15.34 mIU/ml; with A549 [14] it was 39.09%. In addition, the IC50 against Egl nine homolog 1 stood at 1150 nM; at Histone deacetylase 2, 26.6 nM; in experiment [12], 16 nM; on Histone deacetylase 4, 1170 nM; against Histone deacetylase 1, 19.8 nM.
In the case of `CC(/C=C/C(=O)NO)=C\[C@@H](C)C(=O)c1ccc(N(C)C)cc1` [TRICHOSTATIN], the Activity in the experiment with Mus musculus [1] is 0.129 mmol/L; in the experiment with Mus musculus [2] it was 8.86 mmol/L; with HK-2 [16], 70%.
